Measured values from patent US5679805A, “Photochromic spironaphthopyran compounds” (Vision-Ease Lens, Inc., priority 1995, dated 1997).

Assays:
[1] = fade time T1/2 of chloroform-dissolved photochromic compounds after isolation from ultraviolet light; format: physicochemical; design: key to T1/2 (fade time), footnoted reading: *: Fades too fast to obtain readings; conditions: room temperature (72° F.); for T1/2 (fade time): absorbance of activated form to one half of maximum
Method: Additionally, a purchased sample of 3,3-diphenyl-naphtho-3H[2,1-b]pyran, identified as Comparative Example 2, was dissolved in a separate container of chloroform.
Each of the chloroform-dissolved photochromic compounds of Examples 1-3 and Comparative Examples 1-2 were then irradiated with ultraviolet light with a maximum wavelength of 350 nanometers, and the maximum absorption wavelength λmax was determined for each of the chloroform-dissolved photochromic compound. The fade time, T1/2 was then determined for each of the irradiated compounds. The fade time for a particular chloroform dissolved photochromic compound is defined as the time interval, at room temperature (72° F.), for the absorbance of the activated form of the chloroform-dissolved photochromic compound to decrease to one half of the maximum absorbance, after the photochromic compound is isolated from the activating source of ultraviolet light. The maximum absorption wavelength and fade time determined for each of the irradiated photochromic compounds of Examples 1-3 and Comparative Examples 1-2 are presented in Table 1: […]

[2] = maximum absorption wavelength of chloroform-dissolved photochromic compounds irradiated with ultraviolet light; format: physicochemical; conditions: for maximum absorption wavelength λmax: Chloroform, maximum wavelength of 350 nanometers; for maximum wavelength of activation vs Comparative Example 1: compared with Comparative Example 1, 3,3-diphenyl-8-methoxy-3H-naphtho[2,1-b]pyran
[3] = cited from earlier work
[4] = color on activation by ultraviolet light; format: physicochemical
[5] = irradiated with ultraviolet light

SMILES | T1/2 (fade time) [1] | maximum absorption wavelength λmax [2, 5] | photochromic at room temperature [3] | maximum wavelength of activation vs Comparative Example 1 [2] | T1/2 (fade time), footnoted reading [1] | activated maximum wavelength of absorption ([2]; dissolved in chloroform, irradiated with ultraviolet light) | color when activated by ultraviolet light ([4]; activated by ultraviolet light) | color of blend with blue-turning photochromic compounds when activated ([4]; blend with blue-turning photochromic compounds, such as substituted spiroindolino naphthoxazine, ultraviolet radiation)
COc1ccc2c3c(ccc2c1)OC(c1ccccc1)(c1ccccc1)C=C3 [Comparative Example 1, 3,3-diphenyl-8-methoxy-3H-naphtho[2,1-b]pyran, reference compound] | 10 s | – | – | – | – | – | – | –
C1=CC(c2ccccc2)(c2ccccc2)Oc2ccc3ccccc3c21 [Comparative Example 2, 3,3-diphenyl-naphtho-3H[2,1b]pyran, reference compound] | 13 s | 435 | photochromic at room temperature | – | – | – | – | –
C1=CC2(Oc3ccc4c5c(ccc4c31)OC1(C=C5)c3ccccc3-c3ccccc31)c1ccccc1-c1ccccc12 [Example 1] | – | 490 | – | longer maximum wavelength of activation | * | – | – | –
C1=CC2(Oc3ccc4c5c(ccc4c31)OC1(C=C5)c3ccccc3Sc3ccccc31)c1ccccc1Sc1ccccc12 [Example 2] | 1.9 s | 502 | – | longer maximum wavelength of activation | – | about 502 nanometers | deep shade of red | intense shade of gray
